The subject of series [1] is poly A–poly U (AU-RNA) (RNA, polymer) A/U. The experiment in a line: CD titration (ICD). As to conditions: Na+ (sodium cacodylate, I = 0.05 M), pH 7.0, 25 °C.
For series [2], the system named is poly(dAdT)2 (AT-DNA) (DNA, polymer) AT. The experiment in a line: CD titration (ICD). As to conditions: Na+ (sodium cacodylate, I = 0.05 M), pH 7.0, 25 °C.
Series [3] relates to Tel22 (DNA, G4) AGGGTTAGGGTTAGGGTTAGGG
In words: UV thermal melting, 260 nm. As to conditions: pH 7.0, Tel22 2 µM, r = 1.0 (compound 2 µM).

For series [4] the test system is unchanged. In words: fluorescence titration (SPECFIT). As to conditions: pH 7.0, 25 °C; for logKa: K+ (potassium phosphate, I = 0.1 M); for logKa1: Na+ (sodium cacodylate, I = 0.1 M).
The nature of series [5]: Solubility and aggregation (UV/Vis characterization). As to conditions: for Aggregation in aqueous buffer: sodium cacodylate buffer, I = 0.05 mol dm^−3, pH = 7.0, UV/Vis. It counts as physicochemical. The method, then:
The UV/vis spectra were recorded on a Varian Cary 100 Bio spectrophotometer (Agilent, Santa Clara, CA, USA), CD spectra on JASCO J815 spectrophotometer (ABL&E Handels GmbH, Wien, Austria) and fluorescence spectra on a Varian Cary Eclipse spectrophotometer (Agilent, Santa Clara, CA, USA) at 25 °C using appropriate 1 cm path quartz cuvettes.
Studied compounds, 1–6 were soluble (c = 8 × 10^−4 mol dm^−3) in DMSO. […] Therefore, the stock solution of 2 was prepared fresh before use. The experiments were done in aqueous buffer (sodium cacodylate buffer, I = 0.05 mol dm^−3; pH = 7.0).
However, the shape of UV/Vis spectra of cyanine 2 changed with increasing concentration (calibration experiment in Figure S2 in SI). In addition to the dominant maximum at 432 nm (which most likely corresponds to the monomer form of the dye), the absorption band at 413 nm becomes more intense (Figure S2 in SI). Presumably, it corresponds to the aggregated form (H-aggregate). Based on the existence of an absorption band at 432 nm, only the monomer dye form is visible at high temperature (95 °C) (Figure S8b in SI). However, after cooling the solution to 25 °C, an additional band appears at 413 nm, which corresponds to the aggregated dye form.

The test system of series [6] is Tel22 G-quadruplex. In words: Thermal melting of Tel22 in sodium cacodylate buffer. As to conditions: Tel22, r = 1.0, sodium cacodylate buffer, pH = 7.0, I = 0.1 mol dm^−3; error ± 0.5 °C. Type of series: binding, human. The procedure:
(§1) Thermal melting curves for DNA, RNA and their complexes with studied compounds were determined as previously described by following the absorption change at 260 nm as a function of temperature. The absorbance of the ligands was subtracted from every curve and the absorbance scale was normalized. Tm values are the midpoints of the transition curves determined from the maximum of the first derivative and checked graphically by the tangent method. The ∆Tm values were calculated by subtracting Tm of the free nucleic acid from Tm of the complex. Every ∆Tm value here reported was the average of two measurements. The error in ∆Tm is ±0.5 °C. 5′-AGGG(TTAGGG)3–3′(Tel22) was obtained from IDT (Integrated DNA Technologies, Coralville, IA, USA). Tel22 was dissolved in 0.1 M either in sodium cacodylate or potassium phosphate buffer. The starting Tel22 oligonucleotide solution was first heated up to 95 °C for 10 min, then slowly cooled to 10 °C at the cooling rate of 1 °C/min to allow DNA oligonucleotide to adopt a G-quadruplex structure. The G-quadruplex structure was confirmed by thermal melting and CD spectra. The concentration of G quadruplex was expressed in terms of oligonucleotide structure. In fluorimetric titrations, aliquots of Tel 22 solution were added to the solution of ligands (c ~ 2 × 10^−7 M, in SI).

The subject of series [7] is poly(dGdC)2 (GC-DNA) (DNA, polymer) GC. The experiment in a line: CD titration (ICD). As to conditions: Na+ (sodium cacodylate, I = 0.05 M), pH 7.0, 25 °C.
The target in series [8] is Tel22 (5′-AGGG(TTAGGG)3–3′) G-quadruplex. In words: Fluorimetric titration with Tel22 in sodium cacodylate buffer (Na+ solution). It counts as binding, human. The method, then: (§2) Materials. Polynucleotides were purchased as noted: poly A–poly U, calf thymus ctDNA, poly(dAdT)2 and poly(dGdC)2 (Sigma-Aldrich, St. Louis, MI, USA). Polynucleotides were dissolved in Na-cacodylate buffer, I = 0.05 mol dm^−3, pH = 7.0. The calf thymus ctDNA was additionally sonicated and filtered through a […]. Polynucleotide concentration was determined spectroscopically as the concentration of phosphates. Spectrophotometric titrations were performed at pH = 7.0 (I = 0.05 mol dm^−3, sodium cacodylate buffer) by adding aliquots of polynucleotide solution into the solution of the studied compound for fluorimetric experiments and CD experiments were done by adding aliquots of the compound stock solution into the solution of a polynucleotide. In fluorimetric experiments, an excitation wavelength of λexc = 425, 431, 423, 427, 406 and 407 nm, respectively, was used to avoid the inner filter effect caused due to increasing absorbance of the polynucleotide. Emission was collected in the range λem = 400–700 nm. Values for Ka obtained by processing titration data using the Scatchard equation [27], all have satisfactory correlation coefficients (≥0.98).
as §1
(§3) Binding constants (log Ka) and stoichiometry of complexes were calculated from the fluorimetric data using non-linear least-square program SPECFIT [46], in the concentration range that corresponded to 20–80% complex formed.

Series [9] concerns HeLa cells. In words: MTT cytotoxicity assay, HeLa. As to conditions: Homo sapiens, 72 h incubation, ± SD. Type of series: cell-based. The method, then: (§4) Human cervical carcinoma HeLa (GIBCO BRL, Invitrogen, Waltham, MA, USA), human melanoma MDA-MB-435S and human ovarian adenocarcinoma SK-OV-3 (ATCC-LGC Standards GmbH, Wesel, Germany) cell lines were purchased from indicated cell culture banks. Normal human skin fibroblasts were isolated from the upper arm of a donor at the Neurochemical Laboratory, Department of Chemistry and Biochemistry, School of Medicine, University of Zagreb. HeLa, MDA-MB-435S and fibroblasts were grown in Dulbecco’s Modified Eagle’s Medium (DMEM; Sigma-Aldrich, St. Louis, MI, USA) while the SK-OV-3 cell line was grown in McCoy’s 5A medium (Capricorn Scientific, Ebsdorfergrund, Germany). All media were supplemented with 10% fetal bovine serum (FBS; Sigma-Aldrich) and 50 I.U./mL penicillin and 50 μg/mL streptomycin. Cells were cultured in a humidified atmosphere of 5% CO2 at 37 °C and were sub-cultured every 3–4 days. HeLa, MDA-MB-435S, SK-OV-3 cells and fibroblasts were seeded in 96 well plates. Twenty-four hours later the cells were treated, in quadruplicate, with different concentrations of compounds (dissolved in DMSO, kept at 4 °C and protected from light). Following 72 h of incubation at 37 °C, the medium was aspired and modified 3-(4,5-dimethylthiazol-2-yl)-2,5-diphenyltetrazolium bromide (MTT) assay was used to determine the cytotoxic effect of the tested compounds. Three hours later, formazan crystals were dissolved in DMSO (0.17 mL/well), the plates were mechanically agitated for 20 min and the optical density at 600 nm was determined on a microtiter plate reader (Awareness Technology Inc., Palm City, FL, USA). The experiments were repeated three times.

For series [10], the target named is Tel22 (5′-AGGG(TTAGGG)3–3′) G-quadruplex. The experiment in a line: Fluorimetric titration with Tel22 in potassium phosphate buffer (K+ solution). It counts as binding, human. As to conditions: Tel22, potassium phosphate buffer, pH = 7.0, I = 0.1 mol dm^−3; SPECFIT fit. The method, then:
as §2, §1, §3

Series [11] deals with SK-OV-3 cells. The experiment in a line: MTT cytotoxicity assay, SK-OV-3. It counts as cell-based. As to conditions: Homo sapiens, SK-OV-3, 72 h incubation, ± SD. The method, then:
as §4
For orientation: Formazan colour is commonly taken as a measure of viable cells.

The test system of series [12] is MDA-MB-435S cells. In words: MTT cytotoxicity assay, MDA-MB-435S. As to conditions: Homo sapiens, 72 h incubation, ± SD. Type of series: cell-based. The method, then:
as §4

Series [13] has as its system Fibroblasts. The experiment in a line: MTT cytotoxicity assay, normal human skin fibroblasts. It counts as cell-based. As to conditions: Fibroblast, 72 h incubation, ± SD. The procedure:
as §4

For series [14], the system named is Tel22 G-quadruplex. In words: Thermal melting of Tel22 in potassium phosphate buffer. It counts as binding, human. As to conditions: Tel22, r = 1.0, potassium phosphate buffer, pH = 7.0, I = 0.1 mol dm^−3; error ±0.5 °C. The procedure:
as §1

In series [15] the test system is poly(dAdT)2 (AT-DNA) (DNA, polymer) AT. In words: UV thermal melting, 260 nm. As to conditions: Na+ (sodium cacodylate, I = 0.05 M); pH 7.0; r [compound]/[nucleotide phosphate] = 0.1; per base.
Where [16] appears, read: K+ (potassium phosphate, I = 0.1 M).
[17] abbreviates: Na+ (sodium cacodylate, I = 0.1 M).

Where a name gives a salt, the structure may show the parent alone.

On to `CN1C(=Cc2[se]c3ccccc3[n+]2C)Sc2ccccc21`, for which the binding result in series [1] (bisignate ICD +405/−385 nm) and in [2] (positive ICD at 440 nm) was “yes” each time. For the same compound, the “∆Tm” value in series [3] (setting [16]) and in [3] (setting [17]) was 0.5 °C in each case. In series [4], this compound came in with a logKa of 6.88 ± 0.05. The logKa1 in series [4] (site 1 of 2) was 7.26 ± 0.41.
On to `COc1ccc2c(c1)SC(=Cc1[se]c3ccccc3[n+]1C)N2CCCS(=O)(=O)[O-]` [Compound 2, 3-(6-methoxy-2-((3-methylbenzo[d][1,3]selenazol-3-ium-2-yl)methylene)benzo[d]thiazol-3(2H)-yl)propane-1-sulfonate], for which the melting point is > 300 °C. In addition, the “Aggregation in DMSO stock solution” value in [5] (DMSO, after several weeks) is given as “prone to aggregation”. Also, the “Aggregation in aqueous buffer” value in [5] was “mixture of monomer and aggregated form”. The “∆Tm” value in series [6] was found to be 0 °C. Besides, the “∆Tm” value in series [3] (setting [17]) stood at 0 °C.
`C[n+]1c(/C=C2\Sc3ccccc3N2CCS)[se]c2ccccc21` (as salt: sulphate) [Compound 6, 2-((3-(2-mercaptoethyl)benzo[d]thiazol-2(3H)-ylidene)methyl)-3-methylbenzo[d][1,3]selenazol-3-ium methosulphate] yielded a melting point of 245 to 247 °C.
On to `C[n+]1c(C=C2Sc3ccccc3N2CCS)[se]c2ccccc21`, for which the binding entry in series [1] (bisignate ICD), in series [2] (bisignate ICD +440/−400 nm) and in series [7] (bisignate ICD +440/−400 nm) was “yes” in each case. Also, the entries for the “∆Tm” value in series [3] (setting [16]) and in [3] (setting [17]) were 6.9 °C and 2.0 °C, respectively.
As to `C[n+]1c(/C=C2\Sc3ccccc3N2CCCS)[se]c2ccccc21` (as salt: sulphate) [Compound 5, 2-((3-(3-mercaptopropyl)benzo[d]thiazol-2(3H)-ylidene)methyl)-3-methylbenzo[d][1,3]selenazol-3-ium methosulphate], the melting point is 233 to 236 °C.
Regarding `CN1C(=Cc2[se]c3ccccc3[n+]2C)Sc2cc(Cl)ccc21`, the binding entry in [1] (bisignate ICD +405/−385 nm), in series [2] (positive ICD at 440 nm) and in series [7] (bisignate ICD +440/−410 nm) was “yes” in each case. For the same compound, the “∆Tm” value in series [3] (setting [16]) was 3.2 °C; in series [3] (setting [17]), 2.1 °C. This compound came in with a logKa in series [4] of 7.78 ± 0.18. For the same compound, the logKa1 in series [4] amounted to 6.19 ± 0.01.
As to `CN1/C(=C/c2[se]c3ccccc3[n+]2C)Sc2cc(Cl)ccc21` (as salt: sulphate) [Compound 4, 2-((6-chloro-3-methylbenzo[d]thiazol-2(3H)-ylidene)methyl)-3-methylbenzo[d][1,3]selenazol-3-ium methosulphate], the melting point was > 300 °C.
On to `CN1/C(=C/c2[se]c3ccccc3[n+]2C)Sc2cc(Cl)ccc21` [Compound 4, 2-((6-chloro-3-methylbenzo[d]thiazol-2(3H)-ylidene)methyl)-3-methylbenzo[d][1,3]selenazol-3-ium methosulphate], for which the “logKa1 (L + G ⇆ LG)” value in series [8] (Tel22, sodium cacodylate buffer, pH = 7.0, I = 0.1 mol dm^−3, SPECFIT fit of fluorescence titration) was 6.19 ± 0.01. In addition, the “Selectivity for G-quadruplex over duplex DNA” value in [8] (binding affinities Tel22 vs duplex DNA, in both the Na+ and K+ solutions) was determined as 100 fold. Further, the IC50 was 0.793 ± 0.157 µM in series [9], 1.32 ± 0.125 µM in series [11], 0.614 ± 0.0776 µM in [12] and > 2.5 µM in [13]. For the same compound, in [5], the “Aggregation in aqueous buffer” value is on record as “do not form aggregates”. Besides, in series [10], the “logKa (L + G ⇆ LG, 1:1 complex)” value is given as 7.78 ± 0.18. For the same compound, the “∆Tm” value was found to be 2.1 °C in series [6] and 3.2 °C in series [14].
With `C[n+]1c(C=C2Sc3ccccc3N2CCCS)[se]c2ccccc21`, the “∆Tm” value was 4 °C in series [15], 5.1 °C in [3] (setting [16]) and 2.1 °C in series [3] (setting [17]).
Regarding `CN1/C(=C/c2[se]c3ccccc3[n+]2C)Sc2ccccc21` (as salt: sulphate) [Compound 3, 3-methyl-2-((3-methylbenzo[d]thiazol-2(3H)-ylidene)methyl)benzo[d][1,3]selenazol-3-ium methosulphate], the melting point is > 300 °C.

Broadly, the melting point is the temperature of the solid-liquid transition. In general, IC50 refers to the concentration needed to halve the response being measured. High values mean a need for much substance, low ones inhibition by little substance.
